Laboratory results published in patent publication US10670605B2, “Cysteine reactive probes and uses thereof” (The Scripps Research Institute, priority 2015, dated 2020).
Each block holds one compound with its values, some of them ahead of it.

Experiments:
Assay in all cases: Competitive isoTOP-ABPP in situ (fragment-treated cells)
Assay type in all cases: cell-based
[1] = biological target: T1, cysteines in MDA-MB-231 and Ramos cells (Homo sapiens, UniProt Q9UKX7)
T1 sequence (Q9UKX7 1-468): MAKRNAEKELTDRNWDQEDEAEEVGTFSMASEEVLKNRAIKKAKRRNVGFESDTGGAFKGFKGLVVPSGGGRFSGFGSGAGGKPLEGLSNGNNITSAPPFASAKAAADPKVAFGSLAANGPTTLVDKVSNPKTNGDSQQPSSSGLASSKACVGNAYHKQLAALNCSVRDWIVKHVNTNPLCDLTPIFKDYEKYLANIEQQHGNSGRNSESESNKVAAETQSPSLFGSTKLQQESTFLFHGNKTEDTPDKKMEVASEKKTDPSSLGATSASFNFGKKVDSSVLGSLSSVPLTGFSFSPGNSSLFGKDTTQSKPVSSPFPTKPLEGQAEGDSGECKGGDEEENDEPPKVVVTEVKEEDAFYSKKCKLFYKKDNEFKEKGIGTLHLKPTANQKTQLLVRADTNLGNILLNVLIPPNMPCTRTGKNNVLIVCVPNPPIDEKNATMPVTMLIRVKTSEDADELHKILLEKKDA

[2] = biological target: cysteines in MDA-MB-231 and Ramos cells (Homo sapiens, UniProt Q9Y5S2)
[3] = biological target: T2, cysteines in MDA-MB-231 and Ramos cells (Homo sapiens, UniProt Q9GZR2); details: 200 μM, insitu
T2 sequence (Q9GZR2 1-422): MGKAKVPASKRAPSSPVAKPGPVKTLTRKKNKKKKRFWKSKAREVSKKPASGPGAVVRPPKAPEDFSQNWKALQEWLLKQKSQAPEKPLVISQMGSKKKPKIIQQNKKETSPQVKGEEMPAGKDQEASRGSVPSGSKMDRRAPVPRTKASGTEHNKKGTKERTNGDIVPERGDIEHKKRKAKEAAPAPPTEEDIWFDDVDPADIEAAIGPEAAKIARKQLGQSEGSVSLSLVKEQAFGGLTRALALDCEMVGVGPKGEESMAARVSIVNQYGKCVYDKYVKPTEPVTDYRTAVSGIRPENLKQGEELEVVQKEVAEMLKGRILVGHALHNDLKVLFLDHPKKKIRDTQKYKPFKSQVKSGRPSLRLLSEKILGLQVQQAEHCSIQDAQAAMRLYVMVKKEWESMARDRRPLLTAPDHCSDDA

[4] = biological target: T3, cysteines in MDA-MB-231 and Ramos cells (Homo sapiens, UniProt Q8N5L8); details: 200 μM, insitu, 231
T3 sequence (Q8N5L8 1-163): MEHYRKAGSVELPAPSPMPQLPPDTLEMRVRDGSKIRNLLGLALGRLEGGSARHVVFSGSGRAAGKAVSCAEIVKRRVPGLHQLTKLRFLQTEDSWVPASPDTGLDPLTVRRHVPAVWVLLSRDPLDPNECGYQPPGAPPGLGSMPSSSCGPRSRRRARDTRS

[5] = biological target: T4, cysteines in MDA-MB-231 and Ramos cells (Homo sapiens, UniProt O95833); details: 200 μM, insitu, 231
T4 sequence (O95833 1-236): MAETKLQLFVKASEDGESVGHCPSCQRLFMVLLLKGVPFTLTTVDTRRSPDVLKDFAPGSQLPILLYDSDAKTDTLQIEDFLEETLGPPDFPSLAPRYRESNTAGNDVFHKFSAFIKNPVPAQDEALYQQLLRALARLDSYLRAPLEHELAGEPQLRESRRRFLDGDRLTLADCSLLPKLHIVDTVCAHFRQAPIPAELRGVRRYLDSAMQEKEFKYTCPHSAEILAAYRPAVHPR

[6] = biological target: T5, cysteines in MDA-MB-231 and Ramos cells (Homo sapiens, UniProt Q7Z5K2)
T5 sequence (Q7Z5K2 1-1190): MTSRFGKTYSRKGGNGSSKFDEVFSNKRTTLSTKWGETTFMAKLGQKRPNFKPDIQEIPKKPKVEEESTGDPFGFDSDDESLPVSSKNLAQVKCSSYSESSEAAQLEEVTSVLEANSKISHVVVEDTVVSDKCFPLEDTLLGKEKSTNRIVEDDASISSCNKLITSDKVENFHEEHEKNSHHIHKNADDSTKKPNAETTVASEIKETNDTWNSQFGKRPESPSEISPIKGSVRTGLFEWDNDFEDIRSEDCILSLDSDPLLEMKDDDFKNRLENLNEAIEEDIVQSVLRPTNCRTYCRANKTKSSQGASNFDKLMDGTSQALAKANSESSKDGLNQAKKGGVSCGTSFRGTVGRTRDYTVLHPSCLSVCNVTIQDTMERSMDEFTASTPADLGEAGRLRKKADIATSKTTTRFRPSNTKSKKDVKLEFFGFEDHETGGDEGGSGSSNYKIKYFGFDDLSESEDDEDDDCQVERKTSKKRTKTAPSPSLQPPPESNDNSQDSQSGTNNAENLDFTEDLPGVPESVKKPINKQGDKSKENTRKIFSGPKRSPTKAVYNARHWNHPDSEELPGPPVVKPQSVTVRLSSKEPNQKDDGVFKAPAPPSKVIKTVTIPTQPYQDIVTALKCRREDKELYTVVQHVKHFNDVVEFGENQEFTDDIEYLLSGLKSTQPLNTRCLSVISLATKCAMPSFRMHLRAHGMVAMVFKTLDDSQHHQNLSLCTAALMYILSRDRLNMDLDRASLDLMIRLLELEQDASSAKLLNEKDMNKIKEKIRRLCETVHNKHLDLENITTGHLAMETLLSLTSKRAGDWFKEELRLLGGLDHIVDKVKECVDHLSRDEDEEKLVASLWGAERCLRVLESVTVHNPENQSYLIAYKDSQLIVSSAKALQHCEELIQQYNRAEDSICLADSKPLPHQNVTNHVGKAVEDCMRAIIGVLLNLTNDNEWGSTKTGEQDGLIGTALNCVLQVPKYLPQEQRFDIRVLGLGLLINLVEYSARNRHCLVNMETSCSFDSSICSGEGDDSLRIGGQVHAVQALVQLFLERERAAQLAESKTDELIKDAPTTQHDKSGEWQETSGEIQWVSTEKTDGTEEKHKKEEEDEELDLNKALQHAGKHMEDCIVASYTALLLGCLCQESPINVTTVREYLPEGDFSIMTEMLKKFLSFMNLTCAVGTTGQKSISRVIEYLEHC

cysteines in MDA-MB-231 and Ramos cells (Homo sapiens, UniProt Q9Y5S2), sequence (Q9Y5S2 whole entry): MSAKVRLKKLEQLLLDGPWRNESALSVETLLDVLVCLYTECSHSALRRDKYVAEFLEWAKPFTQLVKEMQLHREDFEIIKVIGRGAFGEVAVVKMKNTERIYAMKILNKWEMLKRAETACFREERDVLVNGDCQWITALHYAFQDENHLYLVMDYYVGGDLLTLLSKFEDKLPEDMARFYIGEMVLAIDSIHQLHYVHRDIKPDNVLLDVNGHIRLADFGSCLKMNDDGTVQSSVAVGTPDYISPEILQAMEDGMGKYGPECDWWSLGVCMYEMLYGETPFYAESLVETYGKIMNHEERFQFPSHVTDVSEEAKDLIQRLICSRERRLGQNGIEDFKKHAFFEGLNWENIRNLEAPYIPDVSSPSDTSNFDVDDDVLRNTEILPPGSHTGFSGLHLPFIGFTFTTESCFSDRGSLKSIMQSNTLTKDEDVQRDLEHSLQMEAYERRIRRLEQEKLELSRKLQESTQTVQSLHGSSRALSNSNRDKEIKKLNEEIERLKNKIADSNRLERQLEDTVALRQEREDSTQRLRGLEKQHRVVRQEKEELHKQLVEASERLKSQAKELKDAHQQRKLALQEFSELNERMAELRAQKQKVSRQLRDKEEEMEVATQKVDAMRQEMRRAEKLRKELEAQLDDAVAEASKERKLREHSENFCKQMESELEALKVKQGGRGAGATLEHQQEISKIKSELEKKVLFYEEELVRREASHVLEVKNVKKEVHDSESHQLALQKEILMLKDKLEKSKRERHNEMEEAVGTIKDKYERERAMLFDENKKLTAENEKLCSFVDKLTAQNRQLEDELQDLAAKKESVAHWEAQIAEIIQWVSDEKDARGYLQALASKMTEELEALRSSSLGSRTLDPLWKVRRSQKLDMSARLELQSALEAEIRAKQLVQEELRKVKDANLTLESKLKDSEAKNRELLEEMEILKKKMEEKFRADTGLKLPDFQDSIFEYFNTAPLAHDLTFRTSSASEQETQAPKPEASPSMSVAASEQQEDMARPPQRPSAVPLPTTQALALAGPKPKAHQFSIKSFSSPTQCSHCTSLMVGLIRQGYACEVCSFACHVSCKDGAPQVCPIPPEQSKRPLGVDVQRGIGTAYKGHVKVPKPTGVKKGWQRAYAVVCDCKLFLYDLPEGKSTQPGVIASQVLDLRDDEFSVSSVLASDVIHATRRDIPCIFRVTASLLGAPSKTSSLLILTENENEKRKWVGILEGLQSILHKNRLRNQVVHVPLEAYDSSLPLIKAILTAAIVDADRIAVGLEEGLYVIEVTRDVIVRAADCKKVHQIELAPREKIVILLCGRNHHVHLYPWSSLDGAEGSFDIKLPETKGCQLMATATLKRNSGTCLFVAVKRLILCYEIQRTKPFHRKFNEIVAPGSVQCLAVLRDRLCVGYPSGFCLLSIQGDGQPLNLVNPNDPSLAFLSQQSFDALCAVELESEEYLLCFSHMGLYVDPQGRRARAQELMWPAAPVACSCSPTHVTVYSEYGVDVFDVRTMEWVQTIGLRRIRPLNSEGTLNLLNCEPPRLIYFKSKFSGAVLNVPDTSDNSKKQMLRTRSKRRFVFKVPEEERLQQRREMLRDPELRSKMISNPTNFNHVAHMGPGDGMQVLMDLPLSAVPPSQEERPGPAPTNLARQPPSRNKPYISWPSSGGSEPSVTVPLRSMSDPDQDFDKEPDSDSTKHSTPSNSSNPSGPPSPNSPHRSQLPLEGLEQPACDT

Compound: COc1ccc2c(c1)CCCN2C(=O)CCl [compound 2]
isoTOP-ABPP reactivity Q9UKX7_C151 NUP50 ([1]; 200 μM, insitu, 231): 6.1 | isoTOP-ABPP reactivity Q9Y5S2_C1517 CDC42BPB ([2]; 200 μM, insitu, 231): 20.0

Compound: O=C(CCl)NC(=O)NC12CC3CC(CC(C3)C1)C2 [compound 12]
isoTOP-ABPP ratio, cysteine Q9GZR2_C382 [3]; 231: 20.0 | isoTOP-ABPP ratio, cysteine Q9UKX7_C151 ([1]; 200 μM, insitu, 231): 6.7

Compound: Cc1ccc(C=C(C#N)C(=O)NCCN2CCOCC2)cc1 [compound 41]
isoTOP-ABPP ratio Q9UKX7_C151 ([1]; 200 μM, insitu, 231): 0.8 | isoTOP-ABPP ratio Q9Y5S2_C1517 ([2]; 200 μM, insitu, 231): 0.4 | isoTOP-ABPP ratio Q7Z5K2_C160 ([6]; 200 μM, insitu, 231): 1.0

Compound: Cn1cc(S(=O)(=O)N2CCOCC2)cc1C(=O)NC(=O)CCl [compound 11]
isoTOP-ABPP ratio, cysteine Q9UKX7_C151 ([1]; 100 μM in situ 231): 1.0 | isoTOP-ABPP ratio, cysteine Q9Y5S2_C1517 ([2]; 100 μM in situ 231): 1.2 | isoTOP-ABPP ratio, cysteine Q7Z5K2_C160 ([6]; 100 μM in situ 231): 1.0

Compound: C=CC(=O)N(Cc1cccnc1)c1cc(C(F)(F)F)cc(C(F)(F)F)c1 [compound 31]
isoTOP-ABPP ratio O95833_C22 [5]: 0.5

Compound: O=C(CCl)NCCc1c[nH]c2ccccc12 [compound 13]
isoTOP-ABPP ratio, cysteine Q9GZR2_C382 ([3]; ramos): 0.9 | isoTOP-ABPP ratio, cysteine Q8N5L8_C131 [4]: 1.2

Compound: O=C(CCl)N1CCN(CC(=O)N2CCOCC2)CC1 [compound 29]
isoTOP-ABPP ratio Q7Z5K2_C160 ([6]; 200 μM, insitu, ramos): 0.7

More lines, now with the values ahead:

isoTOP-ABPP ratio, cysteine Q8N5L8_C131 [4]: 0.8 | isoTOP-ABPP ratio, cysteine O95833_C22 [5]: 1.0
Compound: O=C(CCl)NC12CC3CC(CC(C3)C1)C2 [compound 21]

isoTOP-ABPP ratio, cysteine Q7Z5K2_C160 ([6]; 200 μM, insitu, 231): 20.0
Compound: O=C(CCl)N1CCN(S(=O)(=O)c2ccccc2F)CC1 [compound 10]

isoTOP-ABPP ratio Q9GZR2_C382 [3]; 231: 20.0 | isoTOP-ABPP ratio Q8N5L8_C131 [4]: 7.3 | isoTOP-ABPP ratio Q9Y5S2_C1517 ([2]; 200 μM, insitu, 231): 20.0 | isoTOP-ABPP ratio O95833_C22 [5]: 13.8
Compound: CC1CCc2ccccc2N1C(=O)CCl (stereo not shown) [compound 45]

isoTOP-ABPP reactivity Q9Y5S2_C1517 CDC42BPB ([2]; 100 μM in situ 231): 20.0
Compound: COc1ccc(C2CC(c3cccs3)=NN2C(=O)CCl)cc1 (stereo not shown) [compound 4]
